Test results reported in patent publication US12276654B2, “Chemical probe-dependent evaluation of protein activity and uses thereof” (The University of Chicago, priority 2017, dated 2025).
Read-outs that look alike come from different tables or passages of the source.

Legend:
[1] = molecular target: T1, MGLL (Mus musculus, UniProt O35678); test: sADPL in vivo target engagement in mPBMCs after oral gavage, off-target MGLL; conditions: mice, 3 and 80 mg/kg
T1 construct: Then the mPBMCs were acquired from the mouse blood and subjected to family wide probe treatment; from tissue; host or cells: mouse blood PBMCs (mPBMCs)
T1 sequence (O35678 1-303): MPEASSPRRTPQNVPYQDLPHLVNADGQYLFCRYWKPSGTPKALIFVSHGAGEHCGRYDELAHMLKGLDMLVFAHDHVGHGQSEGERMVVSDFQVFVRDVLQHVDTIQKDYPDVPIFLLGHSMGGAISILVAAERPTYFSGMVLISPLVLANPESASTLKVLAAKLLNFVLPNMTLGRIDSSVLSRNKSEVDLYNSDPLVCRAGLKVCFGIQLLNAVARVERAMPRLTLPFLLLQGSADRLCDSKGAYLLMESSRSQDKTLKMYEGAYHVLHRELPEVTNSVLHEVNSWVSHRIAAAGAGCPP
Source text: FIG. 25. In vivo Target Engagement. The mice were administrated with vehicle (PEG300) or NCEH1 inhibitor JW480 by oral gavage. Then the mPBMCs were acquired from the mouse blood and subjected to family wide probe treatment to profile the in vivo target engagement.
Following the in vitro study, in vivo target engagement was planned. In this experiment, the inventors orally gavaged the mice with vehicle or inhibitors, then collected the mPBMCs for probe treatment and sADPL measurement. Again, first the activity of NCEH1 was tested in mice PBMCs, and good activity was found. The delta Ct is over 7 cycles, which is over 100 fold change.

[2] = molecular target: T2, NCEH1 (Homo sapiens, UniProt Q6PIU2); test: ADPL imaging and quantification of endogenous NCEH1 activity in live cells (inhibitor profiling by ADPL); type: cell-based; parameters: endogenous NCEH1 activity in SKOV3 cells; endogenous in cells; host or cells: SKOV3; wild-type PC3; PAFAH2-expressing PC3; conditions: for IC50: inhibitor 4 hr before FP-Bio (2 μM, 40 min), read-out: apparent IC50, inhibition of NCEH1 by ADPL
T2 sequence (Q6PIU2 1-408): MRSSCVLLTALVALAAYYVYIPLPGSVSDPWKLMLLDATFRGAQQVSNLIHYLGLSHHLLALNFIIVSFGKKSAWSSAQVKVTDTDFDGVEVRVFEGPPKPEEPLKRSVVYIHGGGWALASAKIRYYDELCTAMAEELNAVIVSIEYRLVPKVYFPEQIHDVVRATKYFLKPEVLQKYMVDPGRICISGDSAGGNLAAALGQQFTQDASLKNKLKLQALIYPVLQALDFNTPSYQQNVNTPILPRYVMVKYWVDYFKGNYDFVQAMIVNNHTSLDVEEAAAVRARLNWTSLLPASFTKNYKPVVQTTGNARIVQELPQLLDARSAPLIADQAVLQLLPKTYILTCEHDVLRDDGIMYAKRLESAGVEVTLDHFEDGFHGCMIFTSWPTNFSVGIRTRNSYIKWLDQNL
Method: Cells were seeded in the 12-well chamber slide, typically at 10,000-30,000 cells per well (Ibidi, #81201). To get an even distribution of the cells, the chamber slide was pre-wetted with cell culture medium, drained off, and the chamber was left at room temperature for 5-10 min after seeding. Cells at 80-90% confluency were pulse treated with either FP-Bio (2 μM) in DMEM and incubated at 37° C. for 40 min or Capthepsin probe (5 μM) in complete medium and incubated at 37° C. for 3 hr. Cells were washed with PBS, fixed with 4% paraformaldehyde in PBS at room temperature for 15 minutes, washed twice with PBS for 5 minutes each at room temperature with orbital shaking and then permeabilized in 0.5% Triton X-100 in PBS at room temperature for 15 minutes. Finally, cells were washed twice with 0.05% Tween-20 in PBS for 5 minutes each at room temperature with orbital shaking.
Prior to antibody incubation, the chamber was removed and the well boundaries delineated with the hydrophobic barrier pen (Vector laboratories, #H-4000). One-drop Duolink blocking buffer (Sigma, #DUO92004) was added and the slide was incubated at 37° C. for 30 minutes in a humidified chamber. The blocking solution was removed by tapping, followed by addition of 10 μg/ml of the anti-biotin (rabbit, Abcam, #G196266) and primary antibody for the protein of interest: anti-FLAG (mouse, 4 μg/ml of Sigma, #F1804-5 mg); anti-NCEH1 (mouse, 4 μg/ml of in-house polyclonal), anti-FAAH (mouse, 4 μg/ml of Abcam, #ab54615) for serine hydrolase members. […]
For quantitative analysis single cell boundaries were identified manually using the DIC image. Then the “ROI Manager” tool in Image) was utilized to add all the cell outlines as a collection and overlay with the ADPL channel to measure per-cell fluorescence intensity. Typical quantitative comparisons were made using data from three or more independent fields of view per independent biological replicate condition. […]

In the case of `CC(C)c1ccccc1OC(=O)NCCc1ccc2ccccc2c1` [JW480], the “in vivo target engagement of off-target MGLL in mPBMCs” value [1] is reported as “no target engagements were observed”, the IC50 ([2]; PAFAH2 expressing PC3 cells) is reported as 8 nM and the “NCEH1 activity by ADPL imaging and quantification relative to vehicle” value ([2]; SKOV3 cells, 1 μM, 4 hr pre-treatment before FP-Bio) is reported as “significantly reduced”. It also gave an IC50 ([2]; wild-type PC3 cells) of 6 nM.
